Laboratory results published in the NIST ThermoML archive (doi:10.1016/j.jct.2013.09.010).
“And” between values parts separate entries of the source, which are not always exact repeats. Identical values can stand only once.

Experiments:
[1] = molar heat capacity at constant pressure; conditions: 101 kPa, Liquid, Small sample (50 mg) DSC
[2] = Liquid, Vibrating tube method

CCCCC(=O)[O-].C[NH2+]CCO [2-hydroxy-N-methylethanaminium pentanoate]
[1]
Conditions	molar heat capacity at constant pressure
283.15 K	384.8 J/K/mol
287.15 K	396.1 J/K/mol and 394.2 J/K/mol
288.15 K	395.6 J/K/mol [middle of 5 runs]
289.15 K	396 J/K/mol [middle of 4 runs]
290.15 K	396.8 J/K/mol [middle of 4 runs]
291.15 K	397.4 J/K/mol [middle of 4 runs]
292.15 K	397.9 J/K/mol [middle of 4 runs]
293.15 K	397.7 J/K/mol [middle of 5 runs]
294.15 K	398.4 J/K/mol [middle of 4 runs]
295.15 K	399 J/K/mol [middle of 4 runs]
296.15 K	399.3 J/K/mol and 397.9 J/K/mol and 400.7 J/K/mol
297.15 K	400 J/K/mol [middle of 4 runs]
298.15 K	400.6 J/K/mol [middle of 4 runs]
299.15 K	402.3 J/K/mol and 401.1 J/K/mol and 399.5 J/K/mol
300.15 K	401.8 J/K/mol [middle of 4 runs]
301.15 K	402.3 J/K/mol [middle of 4 runs]
302.15 K	402.7 J/K/mol [middle of 4 runs]
303.15 K	402.3 J/K/mol [middle of 5 runs]
304.15 K	403.2 J/K/mol [middle of 4 runs]
305.15 K	403.6 J/K/mol [middle of 4 runs]
306.15 K	405 J/K/mol and 403 J/K/mol and 402.3 J/K/mol
307.15 K	402.7 J/K/mol
308.15 K	401.6 J/K/mol and 403 J/K/mol
309.15 K	403.4 J/K/mol
310.15 K	403.8 J/K/mol
311.15 K	404.3 J/K/mol
312.15 K	404.6 J/K/mol
313.15 K	405 J/K/mol and 405.2 J/K/mol
314.15 K	405.5 J/K/mol
315.15 K	405.7 J/K/mol
316.15 K	406.1 J/K/mol
317.15 K	406.1 J/K/mol
318.15 K	408.9 J/K/mol and 406.4 J/K/mol
319.15 K	406.8 J/K/mol
320.15 K	407.1 J/K/mol
321.15 K	407.5 J/K/mol
322.15 K	407.8 J/K/mol
323.15 K	412.8 J/K/mol and 408.2 J/K/mol
324.15 K	408.5 J/K/mol
325.15 K	408.9 J/K/mol
328.15 K	416.7 J/K/mol
333.15 K	420.6 J/K/mol

mass density [kg/m3], [2]
Conditions	298.15 K	308.15 K	318.15 K	328.15 K	338.15 K	348.15 K	358.15 K
100 kPa	1009.33	1002.78	996.28	989.85	983.48	977.17	970.92
5000 kPa	1011.62	1005.23	998.89	992.6	986.35	980.15	974
10000 kPa	1014.08	1007.73	1001.45	995.24	989.11	983.05	977.05
15000 kPa	1016.41	1010.14	1003.96	997.85	991.83	985.88	980.01
20000 kPa	1018.67	1012.49	1006.39	1000.37	994.43	988.57	982.79
25000 kPa	1020.85	1014.74	1008.72	1002.79	996.97	991.23	985.59
